This is an account of results in ChEMBL document CHEMBL1201862, “PubChem BioAssay data set” (2004).

Among the test systems are PC-3; M14; HT-29; A549; RPMI-8226; TK-10; OVCAR-3; UO-31; HCC 2998; NCI/ADR-RES; MDA-MB-231; SNB-19; CAKI-1; NCI-H23; MDA-N; U-251; UACC-257; A498; T47D; HOP-92.
Common to all, as to experiment: NCI tumour cell line growth inhibition, 48 h

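Cultured in 96-well plates, cells were exposed to test compound for 48 hours across five concentrations. The concentration for 50% growth inhibition is given as GI50.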 Activity calls are given as the source filed them. No stated cut-off is given here; in the data, active = GI50 up to about 1.1 µM and inactive = higher.

Consider `O=C1NCCCNCCCNCCCNC(=O)c2cccc1n2`, for which the GI50 in the experiment on PC-3, in the experiment with M14, in the experiment with HT-29, in the experiment on A549, with RPMI-8226 and with TK-10 was > 100 µM (inactive) throughout. Moreover, the GI50 in the experiment with OVCAR-3, with UO-31, in the experiment with HCC 2998, in the experiment on NCI/ADR-RES, in the experiment on MDA-MB-231 and in the experiment on SNB-19 was > 100 µM (inactive) throughout. Moreover, the GI50 in the experiment with CAKI-1, in the experiment on NCI-H23, in the experiment with MDA-N, with U-251 and in the experiment with UACC-257 was > 100 µM (inactive) throughout.
With `COc1cc(OC)c2nc(C)c(CCCl)c(Cl)c2c1`, the GI50 in the experiment with PC-3, with M14, in the experiment with HT-29, with A549, in the experiment on RPMI-8226 and with TK-10 was > 100 µM (inactive) in each case. For the same compound, the GI50 in the experiment with OVCAR-3, with UO-31, in the experiment with HCC 2998, in the experiment with NCI/ADR-RES, in the experiment with A498 and with MDA-MB-231 was > 100 µM (inactive) in each case. Moreover, the GI50 in the experiment on SNB-19, in the experiment with CAKI-1, with NCI-H23, in the experiment on MDA-N, in the experiment on U-251 and in the experiment with UACC-257 was > 100 µM (inactive) in each case.
Take `O=[N+]([O-])c1ccc(-c2ccc([C@H]3CC(c4cc(F)c(Cl)cc4Cl)=NN3)o2)cc1`: the GI50 with M14 was 13.3 µM (inactive); with HT-29, 37.4 µM (inactive); in the experiment with RPMI-8226, 20.9 µM (inactive); with TK-10, 31.8 µM (inactive); in the experiment on OVCAR-3, 45.2 µM (inactive); in the experiment with UO-31, 69.3 µM (inactive). The GI50 with HCC 2998 is 14.3 µM (inactive); in the experiment with NCI/ADR-RES it was 21.6 µM (inactive); with A498 it was 35.5 µM (inactive); in the experiment with T47D, 5.48 µM (inactive); in the experiment on HOP-92, 26.6 µM (inactive); in the experiment with SNB-19 it was > 100 µM (inactive). Moreover, the GI50 in the experiment with CAKI-1 was 25.9 µM (inactive); in the experiment on NCI-H23, 2.3 µM (inactive); in the experiment on MDA-N, 36.1 µM (inactive); in the experiment with UACC-257, 49.4 µM (inactive).
Turning to `COc1c(C)c(C/C=C(\C)CCCCO[Si](C(C)C)(C(C)C)C(C)C)c(OC)c2ccccc12`, the GI50 with PC-3, in the experiment with M14, in the experiment with HT-29, in the experiment on A549, in the experiment with TK-10 and with OVCAR-3 was > 100 µM (inactive) in each case. Also, the GI50 with UO-31 was > 100 µM (inactive); in the experiment on HCC 2998, > 10 µM (inactive); in the experiment on NCI/ADR-RES, > 100 µM (inactive); in the experiment on MDA-MB-231, > 100 µM (inactive); in the experiment on HOP-92 it was > 100 µM (inactive); in the experiment on SNB-19, > 100 µM (inactive). Further, the GI50 in the experiment on CAKI-1, with NCI-H23, in the experiment on MDA-N, with U-251 and in the experiment with UACC-257 was > 100 µM (inactive) throughout.
Regarding `O=C(O)c1ccccc1.[Ag]`, the GI50 in the experiment with PC-3 was 15.8 µM (inactive); in the experiment with M14 it was 19.5 µM (inactive); in the experiment with HT-29, 20 µM (inactive); in the experiment on A549, 6.81 µM (inactive); in the experiment with RPMI-8226, 2.23 µM (inactive); with TK-10 it was 7.11 µM (inactive). For the same compound, the GI50 was 12.9 µM (inactive) with OVCAR-3; 2.13 µM (inactive) in the experiment on UO-31; 19.2 µM (inactive) with HCC 2998; 34.6 µM (inactive) in the experiment with NCI/ADR-RES; 19.2 µM (inactive) in the experiment with A498; 2.46 µM (inactive) with T47D. For the same compound, the GI50 is 21.7 µM (inactive) in the experiment with HOP-92; 39.4 µM (inactive) with SNB-19; 5.5 µM (inactive) with CAKI-1; 22.6 µM (inactive) in the experiment on NCI-H23; 7.91 µM (inactive) in the experiment with MDA-N; 18.5 µM (inactive) in the experiment with U-251. The GI50 in the experiment with UACC-257 is 5.11 µM (inactive).
As for `CCO/C=N\C1=C(C#N)SC2=N/C(=C\c3ccc(OC)cc3)C(=O)N21`, the GI50 is > 100 µM (inactive) with M14; > 100 µM (inactive) in the experiment on HT-29; > 100 µM (inactive) in the experiment with A549; > 100 µM (inactive) in the experiment with RPMI-8226; 58.2 µM (inactive) in the experiment with TK-10; > 100 µM (inactive) with UO-31. Moreover, the GI50 in the experiment on HCC 2998 was 39.5 µM (inactive); in the experiment on NCI/ADR-RES, > 100 µM (inactive); in the experiment on A498, > 100 µM (inactive); with MDA-MB-231, 80.5 µM (inactive); with T47D it was > 100 µM (inactive); with HOP-92, > 100 µM (inactive). Also, the GI50 in the experiment on SNB-19 was 83.6 µM (inactive); in the experiment on CAKI-1, > 100 µM (inactive); in the experiment with NCI-H23, > 100 µM (inactive); in the experiment on MDA-N, > 100 µM (inactive); in the experiment on U-251, 75.3 µM (inactive); in the experiment on UACC-257, > 100 µM (inactive).
Take `C/C(=N\Nc1nc2ccccc2s1)c1cccnn1`: the GI50 is 1.79 µM (inactive) in the experiment on PC-3; 3.05 µM (inactive) in the experiment on M14; 3.24 µM (inactive) in the experiment with HT-29; 2.23 µM (inactive) with A549; 1.4 µM (inactive) in the experiment with RPMI-8226; 0.406 µM (active) in the experiment on OVCAR-3. In addition, the GI50 is 1.24 µM (inactive) with UO-31; 13.2 µM (inactive) in the experiment with HCC 2998; 2.31 µM (inactive) with NCI/ADR-RES; 2.28 µM (inactive) in the experiment on MDA-MB-231; 2.32 µM (inactive) with HOP-92; 8.2 µM (inactive) in the experiment with SNB-19. Besides, the GI50 is 1.04 µM (active) in the experiment on CAKI-1; 2.61 µM (inactive) in the experiment on NCI-H23; 8.63 µM (inactive) in the experiment on MDA-N; 3.68 µM (inactive) with U-251; 2.48 µM (inactive) in the experiment with UACC-257.
In the case of `CCN1C(=O)/C(=C/Nc2ccccc2)S/C1=N/Nc1nc(-c2ccc(O)c(O)c2)cs1`, the GI50 in the experiment with PC-3 was 33.9 µM (inactive); in the experiment with M14, 5.61 µM (inactive); in the experiment on HT-29 it was 29.8 µM (inactive); in the experiment with A549, 33.7 µM (inactive); in the experiment on RPMI-8226, 12.3 µM (inactive); with TK-10, 38.5 µM (inactive). Moreover, the GI50 with OVCAR-3 is 5.69 µM (inactive); in the experiment on UO-31, 8.02 µM (inactive); with NCI/ADR-RES it was 3.61 µM (inactive); in the experiment on MDA-MB-231, 6.65 µM (inactive); in the experiment with HOP-92, 13.2 µM (inactive); in the experiment with SNB-19, 4.66 µM (inactive). Besides, the GI50 with CAKI-1 is 31.8 µM (inactive); in the experiment on NCI-H23 it was 7.18 µM (inactive); in the experiment with MDA-N, 1.71 µM (inactive); with U-251, 6.56 µM (inactive); in the experiment with UACC-257 it was 6.44 µM (inactive).
